Measurements: patent US6388089B1, “Brassinosteroid biosynthesis inhibitors” (Riken, priority 1998, dated 2002)

How the values were obtained:
endogenous castasterone = settings: side effect; cited from earlier work
vessel elements = settings: cited from earlier work
[1] = tested on: rice (Oryza sativa cv. Koshihikari); assay: rice growth bioassay (rice elongation test); format: in vivo; settings: for growth of the rice plant (length of shoots): in vivo
Procedure: Further, rice growth bioassay was performed as follows. Seeds of rice (Oryza sativa cv. Koshihikari) were immersed in tap water for 2 hours, and then 10 seeds were immersed in 2 ml of 10 mM sodium acetate buffer (pH 5.4) containing 10 mM CaCl2 filled in a sterilized 15-ml test tube in the presence or absence of a test compound. The plants were grown in a growth chamber for 16 hours under a light condition (240 mE/m2s) and for 8 hours under a dark condition (25° C.). The plants were collected and the length of shoots was measured.

[2] = tested on: Arabidopsis (wild-type, Colombia); assay: Arabidopsis germination assay; format: in vivo
Procedure: Arabidopsis mutants such as det2 (de-etiolation) and cpd (constitutive photomorphogenesis and dwarfism) show strong dwarfism manifested as curled leaves in deep green. Although this phenotype disappears when brassinolide is administered externally, other plant hormones such as IAA and gibberellin are ineffective. Based on these findings, the compound of the present invention (Compound 1 obtained in Example 1) was used in Arabidopsis (wild-type, Colombia) germination assay. Screening was performed under a light condition with criteria whether or not the compound generates abnormality 1) which is morphologically similar to mutants in the brassinosteroid biosynthesis and 2) which disappears when brassinolide is administered. It was also examined whether or not the morphological change induced by the test compound was restored to the morphology of wild-type by addition of braassinolide under a dark condition.
(§1) The Arabidopsis germination assay was performed as follows. Seeds of wild-type and det were treated at a low temperature (2° C.) for 2 days, and the surfaces were sterilized with 1% NaOCl solution for 2 minutes and washed seven times with sterilized distilled water. The seeds were sown on 1% agar solid medium containing 0.5×Murashige and Skoog (1962) salt and 1.5% (w/v) sucrose in a plastic plate in the presence or absence of the test compound. The wild-type plant and det2 plant were grown in a growth chamber for 16 hours under a light condition (240 mE/m2s) and for 8 hours under a dark condition (25° C.). For the screening experiment, the plate was sealed with Parafilm (American National Can Co., Ltd., Chicago, Ill., USA). For the restoration experiment that required a longer experimental period, the seeds were sown on 1% agar solid medium containing 0.5×Murashige and Skoog (1962) salt and 1.5% (w/v) sucrose in Agripot (Kirin Brewery Co., Ltd.). The plants were grown in a growth chamber for 16 hours under a light condition (240 mE/m2s) and for 8 hours under a dark condition (28° C.).

[3] = tested on: dwarfed rice plant (Oryza sativa cv. Tan-ginbozu); assay: rice leaf lamina inclination bioassay, whole plant method; format: in vivo
Procedure: In the figure, “Angle” indicates an inclination angle; and the results are indicated with “Cont” for control (no treatment); “CT” for cathasterone (100 ng); “TE” for teasterone (100 ng); and “BL” for brassinolide (0.1 ng) wherein each dose per plant is shown. Generally, the biological activity of brassinosteroids is often evaluated by the in vitro rice leaf lamina inclination bioassay (explantation method: Wada et al., Plant Cell Physiol., 22, pp.323-325, 1981; Takatsuto, J. Chromat. A., 658, pp.3-15, 1994) which is highly sensitive and reliable. However, this conventional method is not suitable for analyzing the mechanism of action of brassinosteroid biosynthesis inhibitors. Recently, Fujioka et al. reported a method (whole plant method) in which the rice leaf lamina inclination bioassay is improved as an […] system. This method reflects the actual biosynthesis process of brassinosteroids by administration of various precursors of brassinolide. The inhibitory action of the compound of the present invention against the brassinolide biosynthesis was evaluated by the explantation method and the whole plant method. The rice leaf lamina inclination bioassay was performed essentially according to the procedure reported by Fujioka et al. as mentioned above by using a dwarfed rice plant (Oryza sativa cv. Tan-ginbozu). Seeds were immersed in water for 2 days at 28° C., and germinated seeds were subjected to selection of those having a uniform coleoptile length (about 1 to 2 mm). Five germinated seeds were planted on 30 ml of 1% agar medium contained in a glass jar (inner diameter: 26 mm×60 mm), and incubated under the aforementioned conditions for 3 days. Each test compound for the bioassay was dissolved in ethanol and placed on a lamina in an amount of […] by using a microsyringe. After the plants were incubated under the same growth conditions for 2 days, the external angle between the leaf lamina and its sheath was measured by using an annular protractor. Thirty plants in total (6 jars) were used for each treatment.

Arabidopsis = Arabidopsis assay with addition of brassinolide precursors; format: in vivo
Procedure: as §1
In order to confirm the action of RMB-61 also in the Arabidopsis assay, the seeds were grown with addition of the aforementioned brassinolide precursors, and recovery of the growth retardation caused by the RMB-61 treatment was observed. […] If RMB-61 is a specific inhibitor against the oxidation of cathasterone, it is expected that the morphological traits of the treated plants have similarities to the phenotypes of the mutants such as cpd (Szekeres et al., Cell, 85, pp.171-182, 1996). It is further expected that the action of RMB-61 will disappear when typhasterol, castasterone or brassinolide is administered, and in addition, the cpd phenotypes caused by brassinosteroids will disappear.

[4] = tested on: dwarfed rice plant (Oryza sativa cv. Tan-ginbozu); assay: rice leaf lamina inclination bioassay, explantation method; format: in vivo; settings: RMB-61 1 μg/plant; FIG. 1

Row | Structure (SMILES) | amount of endogenous castasterone (endogenous castasterone) | differentiation of vessel elements induced by brassinolide (vessel elements) | growth of the rice plant (length of shoots) [1] | induction of dwarfism ([2]; at 10^−6 M, among the test compounds) | concentration at which shapes of the plants significantly resemble det2 mutant ([2]; dose-effect test) | dwarfism / morphological change on simultaneous administration of brassinolide ([2]; with brassinolide) | effect on the inclination action by teasterone, typhasterol and castasterone ([3]; RMB-61 5 μg/plant, FIG. 2) | effect on the action of cathasterone (inclination angle) ([3]; RMB-61 5 μg/plant, cathasterone 100 ng, FIG. 2) | response of the rice plant to brassinosteroid after adding teasterone or brassinolide ([3]; rice plant in which the effect of cathasterone was negated by RMB-61) | greening effect on administration of brassinosteroids (Arabidopsis; brassinosteroids except for cathasterone) | greening of plants (Arabidopsis; under weak light) | growth retardation in the presence of cathasterone (Arabidopsis; with cathasterone) | action of RMB-61 (growth retardation) in presence of brassinosteroids (Arabidopsis; with teasterone, 3-deoxoteasterone, typhasterol, castasterone or brassinolide) | inhibition of the action of brassinolide (inclination angle) [4] | effect on the gibberellin treatment ([1]; with gibberellin)
1 | CC(C)(C)C(O)/C(=C\c1ccc(Cl)cc1)n1cncn1 (centres unmarked) [Uniconazol] | slight reduction | inhibits differentiation of vessel elements | strong growth retardation action | – | – | – | – | – | – | – | – | – | – | – | –
2 | CC(C)(C)[C@@H](O)[C@@H](Cc1ccc(Cl)cc1)n1cncn1 [paclobutrazol, reference compound] | – | – | elongation retardation action | – | – | – | – | – | – | – | – | – | – | – | –
3 | CC(O)(c1ccccc1)C(Cc1ccc(Cl)cc1)n1cncn1 (centres unmarked) [Compound 1, 4-(4-chlorophenyl)-2-phenyl-3-(1,2,4-triazoyl)butan-2-ol] | – | – | no effect | most potent induction of dwarfism | ≥ 10^−5 M | negated | failed to offset | inhibited the action of cathasterone | restored | eliminated | promoted greening | maintained | strongly inhibited the action of RMB-61 | absolutely no inhibition | completely failed to effect the gibberellin treatment
